Key:
sCoaT [1] = target: T1, sCoaT (Sulfitobacter sp. NAS-14.1, UniProt A0ABF7PH95); set-up: gene NAS141_02821; conditions: phosphate analogue at the phosphorylation site; formed from BeSO4 and NaF with EGTA, metal-free; late E2P state
T1 sequence (A0ABF7PH95 1-682): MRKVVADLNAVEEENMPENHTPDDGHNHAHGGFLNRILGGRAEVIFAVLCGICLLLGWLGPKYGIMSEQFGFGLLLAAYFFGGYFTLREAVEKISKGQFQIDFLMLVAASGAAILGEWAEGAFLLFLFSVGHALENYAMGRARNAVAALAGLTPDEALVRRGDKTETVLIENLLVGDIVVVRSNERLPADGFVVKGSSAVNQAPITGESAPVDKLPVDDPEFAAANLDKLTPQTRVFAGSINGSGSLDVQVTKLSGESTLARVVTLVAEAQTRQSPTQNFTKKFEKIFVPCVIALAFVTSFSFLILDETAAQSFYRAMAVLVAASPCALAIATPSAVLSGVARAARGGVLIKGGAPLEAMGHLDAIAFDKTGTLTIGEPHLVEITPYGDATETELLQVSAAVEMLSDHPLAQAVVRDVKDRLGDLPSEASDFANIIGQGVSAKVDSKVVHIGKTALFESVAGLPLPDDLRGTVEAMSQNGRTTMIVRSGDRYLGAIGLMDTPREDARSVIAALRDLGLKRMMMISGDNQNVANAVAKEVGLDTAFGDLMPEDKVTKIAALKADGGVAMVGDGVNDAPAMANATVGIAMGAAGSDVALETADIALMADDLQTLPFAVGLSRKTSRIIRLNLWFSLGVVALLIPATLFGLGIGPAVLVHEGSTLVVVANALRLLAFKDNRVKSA

SsZntA = target: T2, SsZntA (Shigella sonnei, UniProt Q3YW59); assay: Baginski ATPase assay (Pi release) in lipid-detergent; type: biochemical; conditions: 5 mM ATP, Zn2+ or Cd2+, 5 mM MgCl2, Tris-HCl pH 7.5, 37 °C; KCl titration
T2 construct: gene zntA; purified as in Wang et al., 2014
T2 sequence (Q3YW59 1-732): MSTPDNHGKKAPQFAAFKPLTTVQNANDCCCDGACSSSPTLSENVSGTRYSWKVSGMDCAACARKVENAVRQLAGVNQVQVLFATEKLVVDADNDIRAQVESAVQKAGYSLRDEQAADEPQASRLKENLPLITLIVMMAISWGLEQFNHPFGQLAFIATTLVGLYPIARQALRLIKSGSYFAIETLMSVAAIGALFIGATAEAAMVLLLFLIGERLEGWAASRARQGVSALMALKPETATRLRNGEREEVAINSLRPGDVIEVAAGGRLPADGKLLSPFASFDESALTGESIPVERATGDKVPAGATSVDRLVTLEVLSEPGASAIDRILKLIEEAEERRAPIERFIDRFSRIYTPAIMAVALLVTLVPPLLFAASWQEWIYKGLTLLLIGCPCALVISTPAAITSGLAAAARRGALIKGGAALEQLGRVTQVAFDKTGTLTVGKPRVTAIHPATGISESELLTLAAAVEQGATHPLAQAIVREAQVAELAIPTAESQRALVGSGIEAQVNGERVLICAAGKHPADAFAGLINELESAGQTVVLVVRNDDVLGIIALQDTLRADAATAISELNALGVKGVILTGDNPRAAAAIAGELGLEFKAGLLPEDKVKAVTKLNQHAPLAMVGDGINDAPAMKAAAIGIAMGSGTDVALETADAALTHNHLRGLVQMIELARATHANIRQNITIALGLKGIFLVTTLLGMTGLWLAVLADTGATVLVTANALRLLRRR

sCoaT [2] = target: T1, sCoaT; assay: X-ray crystallography, […]-3.[…] Å; type: binding; set-up: gene NAS141_02821; residues before about 40-47 not modelled; conditions: phosphate analogue at the phosphorylation site; formed from AlCl3 and NaF with EGTA, metal-free; E2.Pi state

## [F][Be-]([F])[F] [BeF3^−]
sCoaT [1]
  X-ray crystallography, 3.1 Å: structures of sCoaT in metal-free conditions supplemented with two different phosphate analogues, BeF3^− and AlF4^−

## Nc1ncnc2c1ncn2[C@@H]1O[C@H](COP(=O)(O)OP(=O)(O)OP(=O)(O)O)[C@@H](O)[C@H]1O [ATP]
SsZntA
  Baginski ATPase assay (Pi release) in lipid-detergent: Functional ATPase assay in lipid–detergent solution of sCoaT (wild-type and D601K forms) as well as SsZntA

## [F][Al-]([F])([F])[F] [AlF4^−]
sCoaT [2]
  X-ray crystallography, 3.2-3.3 Å: structures of sCoaT in metal-free conditions supplemented with two different phosphate analogues, BeF3^− and AlF4^−
